# Measured values as given in article PMC6199744, “Development of Chemical Proteomics for the Folateome and Analysis of the Kinetoplastid Folateome” (ACS Infectious Diseases, 2018).
# Read-outs that look alike come from different tables or passages of the source.
# Key:
# Assay type in all cases: binding
# [1] = target: T1, HeLa cell extract proteins (Homo sapiens, UniProt P11413)
# T1 construct: endogenous in cells; host or cells: HeLa cell extract
# [2] = target: T2, HeLa cell extract proteins (Homo sapiens, UniProt P12270)
# T2 construct: endogenous in cells; host or cells: HeLa cell extract
# T2 sequence (P12270 whole entry): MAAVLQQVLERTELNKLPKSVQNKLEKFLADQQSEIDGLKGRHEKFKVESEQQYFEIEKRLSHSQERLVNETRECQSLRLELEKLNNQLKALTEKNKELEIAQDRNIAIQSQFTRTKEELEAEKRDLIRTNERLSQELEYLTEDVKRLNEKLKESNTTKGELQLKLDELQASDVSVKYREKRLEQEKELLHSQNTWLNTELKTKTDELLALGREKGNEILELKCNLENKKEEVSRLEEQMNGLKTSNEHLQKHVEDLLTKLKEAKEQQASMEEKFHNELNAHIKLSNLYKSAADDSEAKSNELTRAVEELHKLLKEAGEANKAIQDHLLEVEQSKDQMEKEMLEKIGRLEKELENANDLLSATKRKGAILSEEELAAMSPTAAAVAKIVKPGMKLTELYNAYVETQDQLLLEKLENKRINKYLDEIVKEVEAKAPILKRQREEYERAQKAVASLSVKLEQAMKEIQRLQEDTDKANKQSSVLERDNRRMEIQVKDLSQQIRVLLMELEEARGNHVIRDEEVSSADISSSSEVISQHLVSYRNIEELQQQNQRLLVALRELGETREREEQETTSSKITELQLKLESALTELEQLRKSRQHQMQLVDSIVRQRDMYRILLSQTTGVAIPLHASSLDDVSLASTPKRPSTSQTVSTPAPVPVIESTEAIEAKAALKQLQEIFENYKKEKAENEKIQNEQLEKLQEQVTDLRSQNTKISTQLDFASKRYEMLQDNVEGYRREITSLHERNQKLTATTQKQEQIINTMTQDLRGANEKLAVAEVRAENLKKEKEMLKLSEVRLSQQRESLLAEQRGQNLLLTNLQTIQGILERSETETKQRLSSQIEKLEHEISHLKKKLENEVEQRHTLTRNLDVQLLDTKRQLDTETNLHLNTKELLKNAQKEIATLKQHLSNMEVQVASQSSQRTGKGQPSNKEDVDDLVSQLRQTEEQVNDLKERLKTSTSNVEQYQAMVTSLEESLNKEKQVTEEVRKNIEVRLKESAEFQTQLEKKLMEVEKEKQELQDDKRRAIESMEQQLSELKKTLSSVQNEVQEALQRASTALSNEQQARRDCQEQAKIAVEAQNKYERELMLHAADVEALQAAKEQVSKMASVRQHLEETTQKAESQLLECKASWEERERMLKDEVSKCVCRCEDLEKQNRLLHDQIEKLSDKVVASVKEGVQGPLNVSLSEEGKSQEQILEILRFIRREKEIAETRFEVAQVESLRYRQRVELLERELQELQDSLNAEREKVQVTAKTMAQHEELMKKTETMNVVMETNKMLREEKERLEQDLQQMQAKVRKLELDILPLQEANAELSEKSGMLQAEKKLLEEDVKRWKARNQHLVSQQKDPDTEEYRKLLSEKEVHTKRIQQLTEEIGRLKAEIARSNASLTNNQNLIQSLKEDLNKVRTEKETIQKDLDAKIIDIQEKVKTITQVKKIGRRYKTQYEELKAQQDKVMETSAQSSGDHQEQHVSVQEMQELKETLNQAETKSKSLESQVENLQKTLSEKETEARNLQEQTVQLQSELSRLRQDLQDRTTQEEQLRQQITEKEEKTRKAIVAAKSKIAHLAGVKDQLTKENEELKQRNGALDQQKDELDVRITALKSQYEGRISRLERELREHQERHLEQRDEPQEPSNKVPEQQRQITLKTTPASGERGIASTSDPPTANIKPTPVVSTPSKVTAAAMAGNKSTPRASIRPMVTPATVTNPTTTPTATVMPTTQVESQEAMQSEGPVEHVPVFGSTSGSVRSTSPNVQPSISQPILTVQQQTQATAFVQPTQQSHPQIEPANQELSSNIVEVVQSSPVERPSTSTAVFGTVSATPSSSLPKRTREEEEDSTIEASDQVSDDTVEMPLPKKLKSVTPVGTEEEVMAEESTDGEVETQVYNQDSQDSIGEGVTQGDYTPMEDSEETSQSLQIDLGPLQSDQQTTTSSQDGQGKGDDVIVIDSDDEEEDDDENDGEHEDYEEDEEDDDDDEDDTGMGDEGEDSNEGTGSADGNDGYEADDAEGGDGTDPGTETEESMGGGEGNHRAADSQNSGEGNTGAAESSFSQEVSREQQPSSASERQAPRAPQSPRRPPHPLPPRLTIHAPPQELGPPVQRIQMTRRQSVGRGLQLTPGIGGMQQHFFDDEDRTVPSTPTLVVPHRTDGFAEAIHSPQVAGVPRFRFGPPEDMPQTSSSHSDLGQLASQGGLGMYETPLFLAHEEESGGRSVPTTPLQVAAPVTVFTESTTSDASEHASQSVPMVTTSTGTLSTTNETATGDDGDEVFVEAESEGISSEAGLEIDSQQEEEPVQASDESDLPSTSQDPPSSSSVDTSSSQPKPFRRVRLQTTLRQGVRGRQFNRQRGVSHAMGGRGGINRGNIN
# [3] = target: T3, HeLa cell extract proteins (Homo sapiens, UniProt O00764)
# T3 construct: endogenous in cells; host or cells: HeLa cell extract
# T3 sequence (O00764 1-312): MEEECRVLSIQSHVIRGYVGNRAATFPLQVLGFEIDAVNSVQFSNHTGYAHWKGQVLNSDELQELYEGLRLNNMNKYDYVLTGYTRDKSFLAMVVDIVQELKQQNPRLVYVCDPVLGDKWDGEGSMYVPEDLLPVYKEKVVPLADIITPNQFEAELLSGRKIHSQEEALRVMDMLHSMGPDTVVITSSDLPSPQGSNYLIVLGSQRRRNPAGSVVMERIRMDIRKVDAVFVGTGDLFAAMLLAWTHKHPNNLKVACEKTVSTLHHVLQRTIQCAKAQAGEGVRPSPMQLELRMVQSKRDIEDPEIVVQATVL
# [4] = target: T4, HeLa cell extract proteins (Homo sapiens, UniProt P30084)
# T4 construct: endogenous in cells; host or cells: HeLa cell extract
# T4 sequence (P30084 28-290): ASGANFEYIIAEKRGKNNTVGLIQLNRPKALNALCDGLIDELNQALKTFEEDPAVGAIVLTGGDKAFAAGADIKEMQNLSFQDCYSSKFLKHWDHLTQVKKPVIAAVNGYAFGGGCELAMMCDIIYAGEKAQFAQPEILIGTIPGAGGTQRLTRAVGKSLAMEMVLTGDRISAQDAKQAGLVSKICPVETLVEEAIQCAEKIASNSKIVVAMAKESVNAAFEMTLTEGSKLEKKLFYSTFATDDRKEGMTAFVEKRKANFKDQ
# [5] = target: T5, HeLa cell extract proteins (Homo sapiens, UniProt Q03393)
# T5 construct: endogenous in cells; host or cells: HeLa cell extract
# T5 sequence (Q03393 1-145): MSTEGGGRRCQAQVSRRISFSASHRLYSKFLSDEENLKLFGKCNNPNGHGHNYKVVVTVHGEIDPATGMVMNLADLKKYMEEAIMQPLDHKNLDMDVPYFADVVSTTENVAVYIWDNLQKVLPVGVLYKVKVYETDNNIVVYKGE
# [6] = target: T6, HeLa cell extract proteins (Homo sapiens, UniProt P07237)
# T6 construct: endogenous in cells; host or cells: HeLa cell extract
# T6 sequence (P07237 18-508): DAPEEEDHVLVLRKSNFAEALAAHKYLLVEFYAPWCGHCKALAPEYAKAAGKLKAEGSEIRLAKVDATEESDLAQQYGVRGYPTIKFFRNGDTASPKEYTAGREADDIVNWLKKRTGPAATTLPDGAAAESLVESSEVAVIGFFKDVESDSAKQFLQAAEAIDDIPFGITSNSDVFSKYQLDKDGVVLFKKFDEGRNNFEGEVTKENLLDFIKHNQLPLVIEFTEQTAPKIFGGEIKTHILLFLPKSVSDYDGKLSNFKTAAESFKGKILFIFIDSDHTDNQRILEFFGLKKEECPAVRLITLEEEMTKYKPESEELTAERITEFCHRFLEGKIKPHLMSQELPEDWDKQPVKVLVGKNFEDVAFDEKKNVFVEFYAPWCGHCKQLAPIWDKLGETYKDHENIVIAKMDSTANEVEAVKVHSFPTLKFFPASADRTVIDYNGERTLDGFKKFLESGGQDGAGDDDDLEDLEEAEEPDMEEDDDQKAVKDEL
# [7] = target: T7, HeLa cell extract proteins (Homo sapiens, UniProt Q8N5P1)
# T7 construct: endogenous in cells; host or cells: HeLa cell extract
# T7 sequence (Q8N5P1 1-291): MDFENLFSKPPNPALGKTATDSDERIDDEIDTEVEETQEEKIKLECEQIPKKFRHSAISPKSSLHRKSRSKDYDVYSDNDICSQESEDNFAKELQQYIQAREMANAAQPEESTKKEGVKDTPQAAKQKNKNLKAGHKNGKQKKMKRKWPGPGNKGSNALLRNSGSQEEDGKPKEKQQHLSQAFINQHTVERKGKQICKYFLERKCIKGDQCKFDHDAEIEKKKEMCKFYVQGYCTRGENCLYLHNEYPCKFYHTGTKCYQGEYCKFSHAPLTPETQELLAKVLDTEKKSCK
# [8] = target: T8, HeLa cell extract proteins (Homo sapiens, UniProt P26639)
# T8 construct: endogenous in cells; host or cells: HeLa cell extract
# T8 sequence (P26639 1-723): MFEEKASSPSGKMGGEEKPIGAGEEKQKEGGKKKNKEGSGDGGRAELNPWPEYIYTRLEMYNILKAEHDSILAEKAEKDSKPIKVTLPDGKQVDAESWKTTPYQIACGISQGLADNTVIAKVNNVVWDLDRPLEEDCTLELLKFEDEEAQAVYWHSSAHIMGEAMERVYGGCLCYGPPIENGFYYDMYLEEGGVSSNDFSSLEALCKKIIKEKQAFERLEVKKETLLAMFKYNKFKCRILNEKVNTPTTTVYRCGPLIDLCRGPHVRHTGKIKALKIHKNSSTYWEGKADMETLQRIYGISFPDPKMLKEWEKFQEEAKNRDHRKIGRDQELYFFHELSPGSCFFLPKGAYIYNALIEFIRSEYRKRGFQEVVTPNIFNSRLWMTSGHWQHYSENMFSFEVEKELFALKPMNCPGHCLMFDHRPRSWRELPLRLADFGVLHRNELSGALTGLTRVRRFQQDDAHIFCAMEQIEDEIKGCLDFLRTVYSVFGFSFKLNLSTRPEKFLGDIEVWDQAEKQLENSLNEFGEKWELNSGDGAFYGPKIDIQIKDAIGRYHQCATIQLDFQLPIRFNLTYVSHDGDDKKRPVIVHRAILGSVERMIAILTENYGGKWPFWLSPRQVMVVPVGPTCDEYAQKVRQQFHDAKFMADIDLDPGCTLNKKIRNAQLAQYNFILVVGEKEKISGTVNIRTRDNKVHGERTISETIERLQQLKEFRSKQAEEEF
# [9] = target: T9, HeLa cell extract proteins (Homo sapiens, UniProt Q9UK99)
# T9 construct: endogenous in cells; host or cells: HeLa cell extract
# T9 sequence (Q9UK99 1-471): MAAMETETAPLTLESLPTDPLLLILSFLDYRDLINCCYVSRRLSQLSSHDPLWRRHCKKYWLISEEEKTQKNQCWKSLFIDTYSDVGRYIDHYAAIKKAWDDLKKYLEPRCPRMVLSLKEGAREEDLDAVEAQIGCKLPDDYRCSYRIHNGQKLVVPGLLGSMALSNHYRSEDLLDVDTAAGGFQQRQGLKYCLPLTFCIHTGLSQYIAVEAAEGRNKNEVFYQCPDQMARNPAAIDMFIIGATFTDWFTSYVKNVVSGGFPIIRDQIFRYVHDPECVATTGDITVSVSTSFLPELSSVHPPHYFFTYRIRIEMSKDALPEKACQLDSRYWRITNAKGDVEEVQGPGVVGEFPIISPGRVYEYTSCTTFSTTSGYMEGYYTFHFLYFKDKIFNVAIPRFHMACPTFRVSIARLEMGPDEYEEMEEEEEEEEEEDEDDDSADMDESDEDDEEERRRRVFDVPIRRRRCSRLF
# [10] = HeLa, protein ZC3H8 (ZINC FINGER CCCH DOMAIN-CONTAINING PROTEIN 8)
# [11] = HeLa, protein FBXO3 (ISOFORM 1 OF F-BOX ONLY PROTEIN 3)
# T1 sequence (P11413 whole entry): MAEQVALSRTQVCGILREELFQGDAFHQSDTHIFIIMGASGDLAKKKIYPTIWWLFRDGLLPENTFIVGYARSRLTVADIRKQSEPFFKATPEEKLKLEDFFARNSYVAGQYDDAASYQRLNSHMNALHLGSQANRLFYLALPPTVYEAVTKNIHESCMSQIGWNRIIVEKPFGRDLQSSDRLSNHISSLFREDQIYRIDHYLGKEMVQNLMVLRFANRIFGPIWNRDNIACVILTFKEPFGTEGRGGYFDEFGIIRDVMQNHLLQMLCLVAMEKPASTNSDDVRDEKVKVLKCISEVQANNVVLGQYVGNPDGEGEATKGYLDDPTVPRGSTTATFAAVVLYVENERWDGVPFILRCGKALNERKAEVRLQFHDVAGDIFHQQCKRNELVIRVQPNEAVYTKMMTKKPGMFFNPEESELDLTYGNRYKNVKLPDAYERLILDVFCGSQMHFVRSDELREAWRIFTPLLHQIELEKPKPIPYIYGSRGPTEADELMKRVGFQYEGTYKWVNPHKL
SMILES,"fold changes relative to vehicle control ([1]; protein G6PD, HeLa)","fold changes relative to vehicle control ([2]; protein TPR, HeLa)","fold changes relative to vehicle control ([3]; HeLa, protein PDXK)","fold changes relative to vehicle control ([4]; protein ECHS1, HeLa)","fold changes relative to vehicle control ([5]; captured protein PTS, HeLa)","fold changes relative to vehicle control ([6]; protein P4HB, HeLa)","fold changes relative to vehicle control ([7]; protein ZC3H8, HeLa)","fold changes relative to vehicle control ([8]; protein TARS, HeLa)","fold changes relative to vehicle control ([9]; protein FBXO3, HeLa)","fold changes relative to vehicle control ([1]; HeLa, protein G6PD)","fold changes relative to vehicle control ([2]; HeLa, captured protein TPR)","fold changes relative to vehicle control ([3]; protein PDXK, HeLa)","fold changes relative to vehicle control ([4]; HeLa, captured protein ECHS1)","fold changes relative to vehicle control ([5]; protein PTS, HeLa)","fold changes relative to vehicle control ([6]; HeLa, protein P4HB)","fold changes relative to vehicle control [7, 10]","fold changes relative to vehicle control ([8]; HeLa, protein TARS)","fold changes relative to vehicle control [9, 11]",other results
CCCCCCOc1cccc(Cc2cnc(N)nc2N)c1 [compound 2],1.89,1.44,0.97,0.92,1.01,1.79,0.96,2.02,1.05,,,,,,,,,,
NCCOCCOCC(=O)Nc1nc2ncc(CNc3ccc(C(=O)NC(CCC(=O)O)C(=O)O)cc3)nc2c(=O)[nH]1 (stereo not drawn) [compound 6],,,,,,,,,,1.32,1.51,0.87,0.76,0.39,1.19,1.04,1.12,1.01,
CCCCCCOc1ccc(Cc2cnc(N)nc2N)cc1 [compound 1],1.15,1.19,1.03,0.98,0.72,1.31,1.19,1.27,0.98,,,,,,,,,,
"Nc1nc2c(c(=O)[nH]1)N(C=O)C(CNc1ccc(C(=O)N[C@@H](CCC(=O)O)C(=O)O)cc1)CN2 (stereo partly drawn) [LEU, leucovorin]",,,,,,,,,,1.12,1.35,1.09,0.89,0.83,0.96,1.22,1.03,1.11,
NCCCNc1ccc(C(=O)NC(CCC(=O)O)C(=O)O)cc1 (stereo not drawn) [compound 7],,,,,,,,,,1.09,1.06,1.03,0.91,1.03,0.92,1,0.97,0.99,
"Nc1nc2[nH]cc(CCc3ccc(C(=O)N[C@@H](CCC(=O)O)C(=O)O)cc3)c2c(=O)[nH]1 [PTX, pemetrexed]",,,,,,,,,,,,,,,,,,,fold changes relative to vehicle control [1]: 1.21; fold changes relative to vehicle control [2]: 1.21; fold changes relative to vehicle control [3]: 0.83; fold changes relative to vehicle control [4]: 0.98; fold changes relative to vehicle control [5]: 0.23; fold changes relative to vehicle control [6]: 1.03; fold changes relative to vehicle control [7]: 1.51; fold changes relative to vehicle control [8]: 1.02; fold changes relative to vehicle control [9]: 1.04
Nc1nc2cccc(-c3ccccc3)c2n1Cc1ccc(Cl)c(Cl)c1 [compound 3],1.03,1.2,0.9,0.91,1.1,1,0.99,0.98,0.91,,,,,,,,,,
